This passage reports IC50 and ED50 results from patent US6124323A, “4-substituted piperidine analogs and their use as subtype selective NMDA receptor antagonists” (Warner-Lambert Company, priority 1998, dated 2000).

In test [1] the target is T1, NMDA receptor subunits 1A/2B (Rattus norvegicus, UniProt P35439+Q00960).
T1 construct: expressed in transfected cells; host or cells: Xenopus laevis oocytes (cRNA injection; clones from Dr. P. H. Seeburg)
Nature of the test: Electrophysiological assay at NMDA receptor subunits expressed in Xenopus oocytes, 1A/2B. It counts as cell-based. The following applies: Xenopus oocytes; glutamate 100 μm and glycine 1-100 μm; read-out: Subunits IC50, 1A/2B. As to the method: (§1) Many of the properties of native NMDA receptors are seen in recombinant homomeric NR1 receptors. These properties are altered by the NR2 subunits. Recombinant NMDA receptors expressed in Xenopus oocytes have been studied by voltage-clamp recording, as has developmental and regional expression of the mRNAs encoding NMDA receptor subunits. Electrophysiological assays were utilized to characterize the actions of compounds at NMDA receptors expressed in Xenopus oocytes. The compounds were assayed at four subunit combinations of cloned rat NMDA receptors, corresponding to three putative NMDA receptor subtypes [Moriyoshi, et al. Nature 1991, 354, 31-37; Monyer et al, Science 1992, 256, 1217-1221; Kutsuwada et al, Nature 1992, 358, 36-41; Sugihara et al, Biochem. Biophys Res. Commun. 1992, 185, 826-832].
(§2) Electrophysiological Assays at NMDA Receptor Subunits
(§3) Preparation of RNA. cDNA clones encoding the NR1A, NR2A, NR2B, NR2C and NR2D rat NMDA receptor subtypes were provided by Dr. P. H. Seeburg (see, Moriyoshi et al., Nature (Lond.) 354:31-37 (1991); Kutsuwada et al., Nature (Lond.) 358:36-41 (1992) Monyer et al., Science (Washington, D.C.) 256:1217-1221 (1992); Ikeda et al., FEBS Lett. 313:34-38 (1992); Ishii et al., J. Biol. Chem. 268:2836-2843 (1993) for details of these clones or their mouse homologs). The clones were transformed into appropriate host bacteria and plasmid preparations were made with conventional DNA purification techniques. A sample of each clone was linearized by restriction enzyme digestion and cRNA was synthesized with T3 RNA polymerase. The cRNA was diluted to 400 ng/μl and stored in 1 μl aliquots at -80° C. until injection.
(§4) The Xenopus oocyte expression system. Mature female Xenopus laevis were anaesthetized (20-40 min) using 0.15% 3-aminobenzoic acid ethyl ester (MS-222) and 2-4 ovarian lobes were surgically removed. Oocytes at developmental stages IV-VI (Dumont, J. N., J. Morphol. 136:153-180 (1972)), were dissected from the ovary still surrounded by enveloping ovarian tissues. Follicle-enclosed oocytes were micro-injected with 1:1 mixtures of cRNA:NR1A+NR2A, 2B, 2C or 2D; injecting ~2,5, or 20 ng of RNA encoding each receptor subunit. NR1A encoding cRNA was injected alone at ~20 ng. Oocytes were stored in Barth's medium containing (in mM):NaCl, 88; KCl, 1; CaCl2, 0.41; Ca(NO3)2, 0.33; MgSO4, 0.82 NaHCO3, 2.4; HEPES 5, pH 7.4, with 0.1 mg/ml gentamicin sulphate. While oocytes were still surrounded by enveloping ovarian tissues the Barth's medium was supplemented with 0.1% bovine serum. Oocytes were defolliculated 1-2 days following injections by treatment with collagenase (0.5 mg/ml Sigma Type I for 0.5-1 hr) (Miledi and Woodward, J. Physiol. (Lond.) 416:601-621 (1989)) and subsequently stored in serum-free medium.
(§5) Electrical recordings were made using a conventional two-electrode voltage clamp (Dagan TEV-200) over periods ranging between 3-21 days following injection. (Woodward et al., Mol. Pharmacol. 41: 89-103 (1992)). Oocytes were placed in a 0.1 ml recording chamber continuously perfused (5-15 ml min^-1 ) with frog Ringer's solution containing (in mM):NaCl, 115; KCl, 2; CaCl2, 1.8; HEPES, 5; pH 7.4. Drugs were applied by bath perfusion. Using oocytes expressing different subunit combinations of NMDA receptor, NMDA currents were activated by co-application of glutamate (100 μm) and glycine (1-100 μm). Inhibitory potency of the novel antagonists was assessed on responses elicited by fixed concentrations of glutamate and glycine, by measuring reductions in current induced by progressively increasing concentrations of antagonist. Concentration-inhibition curves were fit with equation 1.
(§6) I/Icontrol =1/(1+([antagonist]/10^-pIC50)^n) Eq. 1
(§7) in which Icontrol is the current evoked by agonists alone, pIC50 =-log IC50, IC50 is the concentration of antagonist that produces half maximal inhibition, and n is the slope factor. (De Lean et al., Am. J. Physiol. 235:E97-102 (1978)). […]

The target in test [2] is T2, NMDA receptor subunits 1A/2C (Rattus norvegicus, UniProt P35439+Q00961).
T2 construct: expressed in transfected cells; host or cells: Xenopus laevis oocytes (cRNA injection; clones from Dr. P. H. Seeburg)
Nature of the test: Electrophysiological assay at NMDA receptor subunits expressed in Xenopus oocytes, 1A/2C. Type of test: cell-based. The following applies: Xenopus oocytes; glutamate 100 μm and glycine 1-100 μm; read-out: Subunits IC50, 1A/2C. How it is done: as §1, §2, §3, §4, §5, §6, §7

Test [3] relates to Maximal Electroshock-induced Seizures. The test can be described thus: Maximal electroshock-induced seizures (MES). The following applies: Mus musculus; mice; 50 mA, 60 pulses/sec, 1 sec. It counts as in vivo.
Source text: Seizures were induced by application of current (50 mA, 60 pulses/sec, 0.8 sec pulse width, 1 sec duration, d.c.) through saline-coated corneal electrodes using a Ugo Basile ECT device (Model 7801). […] A tonic seizure was defined as a hindlimb extension in excess of 90 degrees from the plane of the body.
Test [4] addresses T3, NMDA receptor subunits 1A/2A (Rattus norvegicus, UniProt P35439+Q00959).
T3 construct: expressed in transfected cells; host or cells: Xenopus laevis oocytes (cRNA injection; clones from Dr. P. H. Seeburg)
The test can be described thus: Electrophysiological assay at NMDA receptor subunits expressed in Xenopus oocytes, 1A/2A. Type of test: cell-based. The following applies: glutamate 100 μm and glycine 1-100 μm. How it is done: as §1, §2, §3, §4, §5, §6, §7

Counter-ions that a name gives are not always drawn.

T1 sequence (Q00960 27-1482, other chains not shown): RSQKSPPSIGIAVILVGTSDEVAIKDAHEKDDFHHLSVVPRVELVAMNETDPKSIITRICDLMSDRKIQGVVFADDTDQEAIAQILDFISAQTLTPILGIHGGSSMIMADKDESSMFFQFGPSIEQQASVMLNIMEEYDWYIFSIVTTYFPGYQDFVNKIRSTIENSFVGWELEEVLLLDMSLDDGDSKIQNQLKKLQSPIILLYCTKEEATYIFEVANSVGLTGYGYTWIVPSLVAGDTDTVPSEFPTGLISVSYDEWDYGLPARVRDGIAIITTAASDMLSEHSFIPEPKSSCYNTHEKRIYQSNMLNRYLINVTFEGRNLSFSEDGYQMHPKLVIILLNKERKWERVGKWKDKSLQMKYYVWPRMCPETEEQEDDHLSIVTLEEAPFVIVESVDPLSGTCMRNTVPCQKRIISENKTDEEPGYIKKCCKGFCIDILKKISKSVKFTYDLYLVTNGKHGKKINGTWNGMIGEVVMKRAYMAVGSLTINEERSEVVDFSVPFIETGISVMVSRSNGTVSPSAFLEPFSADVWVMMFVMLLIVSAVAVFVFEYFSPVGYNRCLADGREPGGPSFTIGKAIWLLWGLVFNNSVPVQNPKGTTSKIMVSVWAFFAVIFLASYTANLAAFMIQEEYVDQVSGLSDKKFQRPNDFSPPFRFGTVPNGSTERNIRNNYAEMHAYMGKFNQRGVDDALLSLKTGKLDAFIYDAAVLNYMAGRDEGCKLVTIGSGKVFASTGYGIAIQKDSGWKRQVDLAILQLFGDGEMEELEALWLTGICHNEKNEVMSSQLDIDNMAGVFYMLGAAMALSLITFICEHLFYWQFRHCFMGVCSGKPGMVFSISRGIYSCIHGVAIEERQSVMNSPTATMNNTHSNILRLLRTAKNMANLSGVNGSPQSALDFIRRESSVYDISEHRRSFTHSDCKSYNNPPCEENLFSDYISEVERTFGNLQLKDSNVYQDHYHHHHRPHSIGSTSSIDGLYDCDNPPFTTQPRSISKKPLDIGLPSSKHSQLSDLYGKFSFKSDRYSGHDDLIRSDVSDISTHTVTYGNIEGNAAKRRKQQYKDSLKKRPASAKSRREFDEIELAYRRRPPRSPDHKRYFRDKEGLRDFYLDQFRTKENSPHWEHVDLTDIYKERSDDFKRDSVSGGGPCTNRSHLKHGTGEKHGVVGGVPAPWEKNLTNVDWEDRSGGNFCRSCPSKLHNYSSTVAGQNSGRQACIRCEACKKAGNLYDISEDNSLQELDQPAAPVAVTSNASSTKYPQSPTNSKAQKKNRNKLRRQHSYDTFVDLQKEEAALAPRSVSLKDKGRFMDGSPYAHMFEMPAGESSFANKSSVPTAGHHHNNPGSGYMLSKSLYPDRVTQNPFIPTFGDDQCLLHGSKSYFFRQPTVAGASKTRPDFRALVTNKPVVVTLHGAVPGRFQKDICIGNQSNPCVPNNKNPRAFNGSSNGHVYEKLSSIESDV
T2 sequence (Q00961 20-1237, other chains not shown): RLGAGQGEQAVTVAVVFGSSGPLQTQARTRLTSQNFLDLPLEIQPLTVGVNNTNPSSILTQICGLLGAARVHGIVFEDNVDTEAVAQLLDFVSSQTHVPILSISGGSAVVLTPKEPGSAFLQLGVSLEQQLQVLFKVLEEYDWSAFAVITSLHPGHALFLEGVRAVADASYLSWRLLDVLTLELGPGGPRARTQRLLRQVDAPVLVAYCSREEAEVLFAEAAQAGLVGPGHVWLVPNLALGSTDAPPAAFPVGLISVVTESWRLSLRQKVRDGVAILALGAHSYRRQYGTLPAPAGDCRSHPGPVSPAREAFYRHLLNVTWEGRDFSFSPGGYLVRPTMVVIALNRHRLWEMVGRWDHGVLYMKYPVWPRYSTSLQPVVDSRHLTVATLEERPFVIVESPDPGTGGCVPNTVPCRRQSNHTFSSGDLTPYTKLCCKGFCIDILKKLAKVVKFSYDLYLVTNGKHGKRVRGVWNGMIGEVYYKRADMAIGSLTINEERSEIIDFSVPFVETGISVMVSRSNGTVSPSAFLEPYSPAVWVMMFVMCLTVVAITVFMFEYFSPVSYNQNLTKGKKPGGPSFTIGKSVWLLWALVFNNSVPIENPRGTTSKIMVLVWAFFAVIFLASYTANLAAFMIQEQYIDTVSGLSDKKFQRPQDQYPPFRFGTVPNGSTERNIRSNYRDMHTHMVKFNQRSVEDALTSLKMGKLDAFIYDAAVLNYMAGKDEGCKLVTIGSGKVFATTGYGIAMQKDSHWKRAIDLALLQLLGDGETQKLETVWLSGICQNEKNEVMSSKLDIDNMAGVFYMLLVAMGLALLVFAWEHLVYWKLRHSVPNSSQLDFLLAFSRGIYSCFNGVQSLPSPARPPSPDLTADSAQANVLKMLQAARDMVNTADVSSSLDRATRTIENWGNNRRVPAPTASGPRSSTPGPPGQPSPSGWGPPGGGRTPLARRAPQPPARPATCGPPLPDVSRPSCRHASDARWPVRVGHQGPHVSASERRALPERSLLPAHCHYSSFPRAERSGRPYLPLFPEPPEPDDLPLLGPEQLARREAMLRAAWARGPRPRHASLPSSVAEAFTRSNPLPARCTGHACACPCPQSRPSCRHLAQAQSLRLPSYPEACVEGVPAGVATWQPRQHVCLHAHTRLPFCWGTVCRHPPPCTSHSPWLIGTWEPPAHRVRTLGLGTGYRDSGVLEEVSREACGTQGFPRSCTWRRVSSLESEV
T3 sequence (Q00959 20-1464 limits assumed, other chains not shown): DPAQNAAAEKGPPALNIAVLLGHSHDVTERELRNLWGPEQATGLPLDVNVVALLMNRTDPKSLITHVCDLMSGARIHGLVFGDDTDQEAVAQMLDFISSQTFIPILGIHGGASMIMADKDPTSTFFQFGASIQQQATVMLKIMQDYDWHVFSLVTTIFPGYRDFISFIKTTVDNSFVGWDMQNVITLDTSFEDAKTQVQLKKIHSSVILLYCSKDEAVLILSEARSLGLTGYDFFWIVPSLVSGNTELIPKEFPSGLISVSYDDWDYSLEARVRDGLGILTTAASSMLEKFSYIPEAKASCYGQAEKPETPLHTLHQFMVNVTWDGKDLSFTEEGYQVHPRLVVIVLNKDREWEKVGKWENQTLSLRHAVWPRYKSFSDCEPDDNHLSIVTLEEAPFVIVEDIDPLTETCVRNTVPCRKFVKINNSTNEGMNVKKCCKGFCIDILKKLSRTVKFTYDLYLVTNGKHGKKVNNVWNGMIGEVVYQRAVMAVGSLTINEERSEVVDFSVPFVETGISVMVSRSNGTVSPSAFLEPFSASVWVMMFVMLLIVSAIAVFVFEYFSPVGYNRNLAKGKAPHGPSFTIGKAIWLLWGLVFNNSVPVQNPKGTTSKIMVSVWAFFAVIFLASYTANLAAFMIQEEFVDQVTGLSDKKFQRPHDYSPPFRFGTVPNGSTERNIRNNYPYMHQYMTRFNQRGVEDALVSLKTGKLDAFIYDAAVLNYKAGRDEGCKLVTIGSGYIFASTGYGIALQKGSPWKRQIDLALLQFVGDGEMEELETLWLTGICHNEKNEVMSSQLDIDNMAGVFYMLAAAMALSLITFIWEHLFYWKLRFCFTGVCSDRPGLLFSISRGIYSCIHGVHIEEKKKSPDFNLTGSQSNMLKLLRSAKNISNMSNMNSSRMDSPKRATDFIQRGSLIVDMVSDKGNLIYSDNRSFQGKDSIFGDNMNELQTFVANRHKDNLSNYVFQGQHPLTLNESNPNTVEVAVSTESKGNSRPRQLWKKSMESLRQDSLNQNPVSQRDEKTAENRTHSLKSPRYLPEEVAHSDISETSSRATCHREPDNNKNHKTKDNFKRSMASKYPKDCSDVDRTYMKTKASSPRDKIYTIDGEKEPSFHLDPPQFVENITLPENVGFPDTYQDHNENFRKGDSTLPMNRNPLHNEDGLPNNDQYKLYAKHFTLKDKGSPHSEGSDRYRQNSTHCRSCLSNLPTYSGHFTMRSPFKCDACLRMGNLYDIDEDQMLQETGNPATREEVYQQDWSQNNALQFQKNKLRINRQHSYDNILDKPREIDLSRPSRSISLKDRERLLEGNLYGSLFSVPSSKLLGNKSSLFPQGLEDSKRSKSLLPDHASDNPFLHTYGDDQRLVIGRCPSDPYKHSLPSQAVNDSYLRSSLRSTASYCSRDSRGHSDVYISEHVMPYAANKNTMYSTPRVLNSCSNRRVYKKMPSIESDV

As a reminder, the ED50 is the midpoint of the dose-response relation. For the molecule `Cl.O=Cc1cccc(OCCN2CCC(Cc3ccccc3)CC2)c1` [Ex. 15, 3-((2-(4-Benzylpiperidin-1-yl)ethyl)oxy)benzaldehyde hydrochloride], the IC50 in test [1] was 1.2 µM; in test [2] it was more than 100 µM. For the same molecule, in test [3], the 50% effect level (ED50) was put at a dose of 100 mg/kg.

Regarding `ON=Cc1cccc(OCCN2CCC(Cc3ccccc3)CC2)c1` [Ex. 16, 3-((2-(4-Benzylpiperidin-1-yl)ethyl)oxy)benzaldehyde oxime], the values for the IC50 in test [1] and in test [2] were 0.5 µM and more than 100 µM, respectively. In test [3], this molecule showed an ED50 of 2.5 mg/kg.

Turning to `NC(=O)Cc1cccc(OCCN2CCC(Cc3ccccc3)CC2)c1` [Ex. 19, 1-(2-(3-(Aminocarbonylmethyl)phenoxy)ethyl)-4-benzylpiperidine], the IC50 in test [1] was determined as 0.35 µM. Also, the 50% effective dose (ED50) in test [3] was determined as 6 mg/kg.

Turning to `O=[N+]([O-])c1ccc(OCCN2CCC(Cc3ccc(Cl)cc3)CC2)cc1` [Ex. 27, 4-(4-Chlorobenzyl)-1-(2-(4-nitrophenoxy)ethyl)piperidine hydrobromide], the IC50 in test [1] is 5 µM; in test [2] it was more than 100 µM. The molecule further showed an ED50 in test [3] of 5 mg/kg.

Take `Fc1ccc(CC2CCN(CCOc3ccc(F)cc3)CC2)cc1` [Ex. 33, 4-(4-Fluorobenzyl)-1-(2-(4-fluorophenoxy)ethyl)piperidine hydrochloride]: the IC50 was 2 µM in test [1] and more than 100 µM in test [2]. In test [3], this molecule displayed an ED50 of 4 mg/kg.

For `Nc1cccc(OCCN2CCC(Cc3ccccc3)CC2)c1N` [Ex. 53, 4-Benzyl-1-[2-(2,3-diaminophenoxy)ethyl]piperidine], the IC50 was 0.31 µM in test [1] and more than 100 µM in test [2]. The molecule also returned a 50% effective dose (ED50) in test [3] of 2.5 mg/kg.

In turn, `Nc1ccc(OCCN2CCC(Cc3ccccc3)CC2)cc1` [Ex. 65, 4-Benzyl-1-[2-(4-aminophenoxy)ethyl]piperidine] gave an ED50 in test [3] of 6 mg/kg.

For the molecule `Cc1ccc(CC2CCN(CCOc3cccc(O)c3)CC2)cc1` [Ex. 160, 1-[2-(3-Hydroxyphenoxy)ethyl]-4-(4-methylbenzyl)piperidine hydrochloride], the IC50 in test [4] stood at 60 µM; in test [1], 0.2 µM; in test [2], 120 µM.

For the molecule `Cc1ccc(CC2CCN(CCOc3ccccc3O)CC2)cc1` [Ex. 161, 1-[2-(2-Hydroxyphenoxy)ethyl]-4-(4-methylbenzyl)piperidine hydrochloride], the results for the IC50 in test [4], in test [1] and in test [2] were 85 µM, 0.04 µM and 170 µM, respectively.

Turning to `CN(CCN1CCC(Cc2ccccc2)CC1)c1ccc(O)cc1` [Ex. 163, 4-Benzyl-1-(2-(N-methyl-4-hydroxyanilino)ethyl)piperidine dihydrochloride], the IC50 in test [4] was 35 µM; in test [1], 0.1 µM; in test [2] it was more than 300 µM.

Turning to `N=c1[nH]c2ccc(OCCN3CCC(Cc4ccccc4)CC3)cc2[nH]1` [Ex. 172, 4-Benzyl-1-(2-(2-iminobenzimidazol-5-oxy)ethyl)piperidine], the IC50 in test [4] was 140 µM; in test [1] it was 0.11 µM; in test [2], 50 µM.

Consider `Oc1ccc2cc(OCCN3CCC(Cc4ccc(F)cc4)CC3)ccc2c1` [Ex. 191, 4-(4-Fluorobenzyl)-1-(2-(2-hydroxynaphth-6-oxy)ethyl)piperidine], for which the IC50 was 25 µM in test [4], 0.1 µM in test [1] and more than 300 µM in test [2].

Regarding `Cc1ccc(CC2CCN(CCOc3ccc4cc(O)ccc4c3)CC2)cc1` [Ex. 192, 4-(4-Methylbenzyl)-1-(2-(2-hydroxynaphth-6-oxy)ethyl)piperidine], the IC50 in test [4] was more than 300 µM; in test [1], 0.1 µM; in test [2], more than 300 µM.

Turning to `O=C1Cc2cc(OCCN3CCC(Cc4ccc(F)cc4)CC3)ccc2N1` [Ex. 195, 4-(4-Fluorobenzyl)-1-(2-(2-oxo-1,3-dihydroindol-5-oxy)ethyl)piperidine], the IC50 in test [4] was more than 300 µM; in test [1], 0.07 µM; in test [2], more than 300 µM.
